Results as given in patent US6897198B2, “Method of treatment with combinations of statin and aryl-substituted propanolamine derivatives” (Aventis Pharma Deutschland GmbH, priority 1998, dated 2005).

Legend:
[1] = molecular target: T1, Na+-dependent bile acid transport system (Oryctolagus cuniculus, UniProt Q28727); test: Inhibition of Na+-dependent [3H]-taurocholate uptake in rabbit ileum cuticular layer membrane vesicles; type: biochemical; details: Table 1, 50 μM taurocholate, incubation normally 1 minute
T1 construct: Cuticular layer membrane vesicles were prepared from ileum cells by the so-called Mg^2+ precipitation method; from tissue; host or cells: terminal ileum of male New Zealand rabbits (brush-border / cuticular layer membrane vesicles)
T1 sequence (Q28727 1-347): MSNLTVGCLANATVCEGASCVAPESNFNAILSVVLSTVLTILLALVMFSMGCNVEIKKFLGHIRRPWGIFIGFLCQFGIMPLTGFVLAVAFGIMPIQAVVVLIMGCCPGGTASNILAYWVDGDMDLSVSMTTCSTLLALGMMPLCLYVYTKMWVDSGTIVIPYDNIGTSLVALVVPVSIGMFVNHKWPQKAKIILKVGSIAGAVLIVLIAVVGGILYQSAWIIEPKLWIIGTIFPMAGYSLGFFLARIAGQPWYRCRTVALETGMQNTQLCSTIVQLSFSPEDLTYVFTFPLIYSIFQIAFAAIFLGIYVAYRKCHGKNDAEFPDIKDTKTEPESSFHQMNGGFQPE
Description: The compounds according to the invention were tested in a biotest by determining the inhibition of [^3H]-taurocholate uptake in rabbit ileum cuticular layer membrane vesicles. The inhibitory test was carried out as follows:
1. Preparation of Rabbit Ileum Cuticular Layer Membrane Vesicles
Cuticular layer membrane vesicles were prepared from ileum cells by the so-called Mg^2+ precipitation method. Male New Zealand rabbits (body weight 2 to 2.5 kg) were sacrificed by intravenous injection of 0.5 ml T61®, an aqueous solution of 2.5 mg of tetracaine —HCl, 100 mg of embutramide and 25 mg of mebezonium iodide. The ileum was removed and washed with ice-cold physiological saline. The terminal 7/10th of the ileum (measured in the oral-rectal direction, i.e., the terminal ileum, which contains the active Na^+-dependent bile acid transport system) were used for preparing the cuticular layer membrane vesicles. The intestines were frozen in polymer bags at −80° C. under nitrogen. To prepare the membrane vesicles, the frozen intestines were defrosted in a water bath at 30° C. The mucosa was scraped off and suspended in 60 ml of ice-cold 12 mM TRIS/HCl buffer (pH 7.1)/300 mM mannitol, 5 mM EGTA/10 mg/l phenylmethylsulfonyl fluoride/1 mg/l soybean trypsin inhibitor (32 (U/mg)/0.5 mg/l bovine lung trypsin inhibitor (193 U/mg)/5 mg/l bacitracin. After the mixture had been diluted to 300 ml with ice-cold distilled water, it was homogenized in an Ultraturrax (rod 18, IKA Werk Staufen, Germany) for 3 minutes at 75% of maximum speed, with ice-cooling. After 3 ml of 1 M MgCl2 solution had been added (final concentration 10 mM), the mixture was left to stand at 0° C. for exactly 1 minute. The addition of Mg^2+ causes the cell membranes to aggregate and precipitate with the exception of the cuticular layer membranes. After centrifugation for 15 minutes at 3000×g (5000 rpm, SS-34 rotor), the precipitate was discarded, and the supernatant, which contains the cuticular layer membranes, was centrifuged for 30 minutes at 48,000×g (20,000 rpm, SS-34 rotor). The supernatant was discarded, and the precipitate was rehomogenized in 60 ml of 12 mM TRIS/HCl buffer (pH 7.1)/60 mM mannitol, 5 mM EGTA using a Potter Elvejhem homogenizer (Braun, Melsungen, 900 rpm, 10 strokes). After addition of 0.1 ml of 1 M MgCl2 solution and incubation for 15 minutes at 0° C., the mixture was again centrifuged for 15 minutes at 3000×g. The supernatant was subsequently centrifuged for a further 30 minutes at 48,000×g (20,000 rpm, SS-34 rotor). […]
The uptake of substrates into the above-described cuticular layer membrane vesicles was determined by means of the so-called membrane filtration technique. […]

gallstone-sensitive mice = test: Test for gallstone formation (cholesterol gallstone formation, lithogenic diet); type: in vivo; details: male C57L mice, 100 mg/kg/d (0.1% in the feed), 13 weeks, lithogenic diet alone 5/15
Description: Test for Gallstone Formation • 1. Test Substance, Dose and Application • Example 9 of Table 1 (=A1) 100 mg/kg/d 0.1% in the feed • 2. Aim
In this test, the cholesterol gallstone formation in gallstone-sensitive mice was investigated. • 3. Materials and Methods • 3.1 Animals and Housing
The experimental animals used are male C57L mice (Jackson Laboratories) with an average body weight of 25-30 g at the beginning of the adaptation.
The animals were randomly divided into 4 groups (n=10, groups 2 and 3 n=15). Starting at the beginning of the treatment, the mice were either fed a standard rodent feed by Altromin (group 1), or a lithogenic diet by Altromin (groups 2-4); this diet was composed as follows: 15% butter, 1% cholesterol, 50% sugar, 20% casein, 0.5% cholic acid, 5% mineral mix, 2.5% vitamin mix, 2% corn oil, corn starch to 100%. The animals were weighed weekly, and the food consumption was determined by continuous weighings before and after, whereby the dose was calculated. • 3.2. Final Examination
After 11 and 13 weeks, respectively, the animals of each group were sacrificed and the gallbladders subsequently prepared. Gallstones in the gallbladder were then recorded. The gallbladder was dissected, the weight was determined, and the composition of the bile and the gallstones was analyzed.

| Bio. Test (quotient of the IC50Na values of the reference substance taurochenodesoxycholate (TCDC) and the test substance) [1] | Compound | Frequency of gallstones (n/n) (gallstone-sensitive mice) |
| --- | --- | --- |
| 0.24 | O=C(NCCCNc1ccccc1[C@@H](Nc1ccccn1)[C@H](c1ccccn1)[C@H](O)c1ccccc1)[C@H](O)[C@@H](O)[C@H](O)[C@H](O)CO [Example 2] |  |
| 0.83 | CC(=O)OC[C@@H](OC(C)=O)[C@@H](OC(C)=O)[C@H](OC(C)=O)[C@@H](OC(C)=O)C(=O)NCCCCCCCCCCC(=O)Nc1ccccc1[C@@H](Nc1ccccn1)[C@H](c1ccccn1)[C@H](O)c1ccccc1 [Example 8] |  |
| 1.78 | O=C(CCCCCCCCCCNC(=O)[C@H](O)[C@@H](O)[C@H](O)[C@H](O)CO)Nc1ccccc1[C@@H](Nc1ccccn1)[C@H](c1ccccn1)[C@H](O)c1ccccc1 [Example 9] | 0/10 |
| 0.19 | O=C(CCC(=O)Nc1ccccc1[C@@H](Nc1ccccn1)[C@H](c1ccccn1)[C@H](O)c1ccccc1)NC[C@H](O)[C@@H](O)[C@H](O)[C@H](O)CO [Example 15] |  |
